Results: US11958865B1, “Leucine-rich repeat kinase 2 (LRRK2) inhibitors” (H. Lundbeck A/S, priority 2022, dated 2024)

Key:
[1] = test system: panel of 403 wild type kinases; assay: Broad kinase selectivity, KINOMEscan scanMAX panel; format: binding, primarily of human origin; conditions: 10 nM
Experimental: Protein kinase profiling of the inhibitors (Fabian, M. A. et al. A small molecule-kinase interaction map for clinical kinase inhibitors. Nat. Biotechnol. 23, 329-336 (2005)) were undertaken at a concentration of 0.010 μM and carried out in Eurofins DiscoverX KINOMEscan scanMAX panel of 403 wild type kinases (primarily of human origin) covering AGC (PKA, PKG, PKC family kinases), CAMK (Calcium/calmodulin-dependent protein kinases), CK1 (Casein kinase 1 kinases), CMGC (CDK, MAPK, GSK3, CLK families), STE (homologs of yeast Sterile 7, Sterile 11, Sterile 20 kinases), TK (Tyrosine kinases), TKL (Tyrosine kinase-like kinases), lipid and atypical kinase families.
Selectivity Score or S-score is a quantitative measure of compound selectivity. It was calculated by dividing the number of kinases that a compound binds to by the total number of distinct kinases tested, excluding mutant variants. S=Number of hits/Number of assays. This value can be calculated using % Ctrl as a potency threshold (below) and provides a quantitative method of describing compound selectivity to facilitate comparison of different compounds.

[2] = Hepatic microsomal intrinsic clearance assay; format: in vitro ADME; conditions: for CLint scaled at 1 μM: pooled liver microsomes, pH 7.4, liver microsomes 0.5 mg/mL, NADPH, 1 hour at 37° C., LLOQ 0.36 L/h/kg
In short: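 Compounds at 1 μM final were incubated with pooled liver microsomes (0.5 mg/mL) in phosphate buffer pH 7.4 at 37 °C for up to 60 min. Samples taken at 0, 5, 10, 20, 30 and 60 min were quenched with acetonitrile and analysed by LC-MS/MS.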

[3] = Fraction unbound in rat plasma and brain homogenate by equilibrium dialysis; format: in vitro ADME, male Sprague-Dawley rat; conditions: 1 μM, equilibrium dialysis 5 h at 37° C.; for fubrain (% free): rat brain homogenate; for fuplasma (% free): rat plasma
In short: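 Male Sprague-Dawley rat plasma or brain homogenate (diluted 1:4 in buffer) dialysed against 100 mM sodium phosphate pH 7.4 across a 12-14 kDa membrane, 1 μM compound (≤0.5% DMSO), 5 h at 37° C with shaking. LC/MS-MS of both chambers; fu from buffer/donor ratio, corrected for dilution factor D=4 (brain) or 1 (plasma).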

[4] = test system: pooled donor, cryopreserved hepatocytes; assay: Hepatocyte intrinsic clearance assay; format: in vitro ADME, Human; conditions: based on hepatocyte CLint values of Table 5
In short: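 Compound (0.05 μM final, 0.05% organic) was incubated with pooled-donor cryopreserved hepatocytes (1×10^6/mL) in supplemented Leibovitz L-15, pH 7.4, at 37° C with shaking for 2 h. Samples were taken from 1 to 120 min, quenched in acetonitrile and analyzed by LC-MS/MS.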

For `COc1ncccc1-n1nc2c(c1C)Nc1ncc3c(Cl)nn(c3n1)CCCO2` [Example 1, 8-Chloro-2-(2-methoxypyridin-3-yl)-3-methyl-2,4,12,13-tetrahydro-11H-5,7-(azenometheno)dipyrazolo[3,4-b:5′,1′-g][1]oxa[4,6,8]triazacycloundecine], the “Selectivity Score S(1)” value ([1]; hits with % Ctrl <1 / 403 non-mutant kinases) was 0.005, the “Selectivity Score S(10)” value ([1]; hits with % Ctrl <10 / 403 non-mutant kinases) was 0.01 and the “Selectivity Score S(35)” value ([1]; hits with % Ctrl <35 / 403 non-mutant kinases) was 0.03. The “Number of Hits, S(1)” value ([1]; kinases with % Ctrl <1, 403 non-mutant kinases, includes LRRK2 WT) was 2, the “Number of Hits, S(10)” value ([1]; kinases with % Ctrl <10, 403 non-mutant kinases) was 4 and the “Number of Hits, S(35)” value ([1]; kinases with % Ctrl <35, 403 non-mutant kinases) was 12. The CLint scaled at 1 μM [2] was 9.67 mL/min/kg, the “fubrain (% free)” value [3] was 4.7 % free and the “fuplasma (% free)” value [3] was 14.7 % free.

For `COc1nccc(C)c1-n1nc2c(c1C)Nc1ncc3c(Cl)nn(c3n1)CCCO2` [Example 7, 8-Chloro-2-(2-methoxy-4-methylpyridin-3-yl)-3-methyl-2,4,12,13-tetrahydro-11H-5,7-(azenometheno)dipyrazolo[3,4-b:5′,1′-g][1]oxa[4,6,8]triazacycloundecine], the CLint scaled at 1 μM [2] was 16.2 mL/min/kg, the “fubrain (% free)” value [3] was 7.5 % free and the “fuplasma (% free)” value [3] was 21.0 % free.

In the case of `COc1ncc(C)cc1-n1nc2c(c1C)Nc1ncc3c(Cl)nn(c3n1)CCCO2` [Example 12, 8-Chloro-2-(2-methoxy-5-methylpyridin-3-yl)-3-methyl-2,4,12,13-tetrahydro-11H-5,7-(azenometheno)dipyrazolo[3,4-b:5′,1′-g][1]oxa[4,6,8]triazacycloundecine], the CLint scaled at 1 μM [2] is reported as 16.8 mL/min/kg, the “fubrain (% free)” value [3] is reported as 3.0 % free and the “fuplasma (% free)” value [3] is reported as 6.7 % free.

With `COc1nc(C)ccc1-n1nc2c(c1C)Nc1ncc3c(Cl)nn(c3n1)CCCO2` [Example 13, 8-Chloro-2-(2-methoxy-6-methylpyridin-3-yl)-3-methyl-2,4,12,13-tetrahydro-11H-5,7-(azenometheno)dipyrazolo[3,4-b:5′,1′-g][1]oxa[4,6,8]triazacycloundecine] the “Rate of metabolism classification (hepatocyte CLint)” value [4] was “moderate to high rate of metabolism”, the “Rate of metabolism classification (liver microsomal CLint)” value ([2]; based on liver microsomal CLint values of Table 6) was “moderate to high rate of metabolism” and the CLint scaled at 1 μM [2] was 30.3 mL/min/kg. The “fubrain (% free)” value [3] was 1.9 % free and the “fuplasma (% free)” value [3] was 7.4 % free.

In the case of `Cc1c2c(nn1-c1cccnc1C(C)(F)F)OCCCn1nc(Cl)c3cnc(nc31)N2` [Example 14, 8-Chloro-2-(2-(1,1-difluoroethyl)pyridin-3-yl)-3-methyl-2,4,12,13-tetrahydro-11H-5,7-(azenometheno)dipyrazolo[3,4-b:5′,1′-g][1]oxa[4,6,8]triazacycloundecine], the CLint scaled at 1 μM [2] is reported as 17.2 mL/min/kg, the “fubrain (% free)” value [3] is reported as 5.8 % free and the “fuplasma (% free)” value [3] is reported as 14.6 % free.

With `Cc1nc(C)c(-n2nc3c(c2C)Nc2ncc4c(Cl)nn(c4n2)CCCO3)cc1F` [Example 15, 8-Chloro-2-(5-fluoro-2,6-dimethylpyridin-3-yl)-3-methyl-2,4,12,13-tetrahydro-11H-5,7-(azenometheno)dipyrazolo[3,4-b:5′,1′-g][1]oxa[4,6,8]triazacycloundecine] the CLint scaled at 1 μM [2] was 12 mL/min/kg, the “fubrain (% free)” value [3] was 5.0 % free and the “fuplasma (% free)” value [3] was 11.0 % free.

For `COc1nc(C)ncc1-n1nc2c(c1C)Nc1ncc3c(Cl)nn(c3n1)CCCO2` [Example 22, 8-Chloro-2-(4-methoxy-2-methylpyrimidin-5-yl)-3-methyl-2,4,12,13-tetrahydro-11H-5,7-(azenometheno)dipyrazolo[3,4-b:5′,1′-g][1]oxa[4,6,8]triazacycloundecine], the CLint scaled at 1 μM [2] was less than 6 mL/min/kg, the “fubrain (% free)” value [3] was 6.8 % free and the “fuplasma (% free)” value [3] was 16.8 % free.
